Data published in patent US7662860B2 (priority 2003, dated 2010).

Target: SARS-CoV virus 3CL protease protein (Severe acute respiratory syndrome coronavirus, UniProt P0C6X7)
Test: biochemical
Type: binding

CN(C)CCCSc1ccccc1NC(=O)C=Cc1ccccc1 [cinanserin, 2′-(3-dimethylaminopropylthio)cinnamanilide]
kd: 0.00993 s⁻¹ | kon (read-out: ka): 38600 M⁻¹ s⁻¹
